Target: T1, SAE (Homo sapiens, UniProt Q9UBT2)
T1 construct: endogenous in cells; host or cells: HCT116
T1 sequence (Q9UBT2 1-640): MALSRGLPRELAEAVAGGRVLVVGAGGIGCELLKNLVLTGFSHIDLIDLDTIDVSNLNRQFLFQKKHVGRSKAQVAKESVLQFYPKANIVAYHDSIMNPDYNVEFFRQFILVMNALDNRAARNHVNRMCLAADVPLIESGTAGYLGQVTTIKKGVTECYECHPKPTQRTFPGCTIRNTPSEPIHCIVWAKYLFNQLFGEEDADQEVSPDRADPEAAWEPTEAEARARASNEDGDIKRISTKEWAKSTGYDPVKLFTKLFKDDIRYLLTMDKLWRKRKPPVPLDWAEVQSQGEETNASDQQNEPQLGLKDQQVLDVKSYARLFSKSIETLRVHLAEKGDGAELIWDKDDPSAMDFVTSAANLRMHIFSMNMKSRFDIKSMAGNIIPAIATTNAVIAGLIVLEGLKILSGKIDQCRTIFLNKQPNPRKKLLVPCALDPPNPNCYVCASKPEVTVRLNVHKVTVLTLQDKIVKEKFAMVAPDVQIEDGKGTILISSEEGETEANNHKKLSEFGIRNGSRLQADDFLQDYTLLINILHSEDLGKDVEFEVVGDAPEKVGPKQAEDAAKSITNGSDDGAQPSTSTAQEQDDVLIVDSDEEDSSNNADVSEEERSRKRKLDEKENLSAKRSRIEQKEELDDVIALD
T1 sequence (Q9UBE0 1-346): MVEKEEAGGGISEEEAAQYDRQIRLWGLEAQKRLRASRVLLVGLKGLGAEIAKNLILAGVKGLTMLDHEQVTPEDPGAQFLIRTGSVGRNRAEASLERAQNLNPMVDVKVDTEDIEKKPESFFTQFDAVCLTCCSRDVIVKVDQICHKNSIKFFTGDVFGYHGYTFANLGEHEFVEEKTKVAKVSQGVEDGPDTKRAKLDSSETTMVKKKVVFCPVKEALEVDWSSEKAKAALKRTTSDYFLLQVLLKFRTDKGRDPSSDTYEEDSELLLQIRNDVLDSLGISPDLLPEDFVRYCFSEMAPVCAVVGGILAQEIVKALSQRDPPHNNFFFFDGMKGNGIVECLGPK
Experiment: SUMO IF: in vitro inhibitory activity assay against SAE in HCT116 cells (SUMO-2/3 immunofluorescence)
Assay type: cell-based
Conditions: class symbols, 6 h at 37° C.
Outline: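 SUMO-2/3 immunofluorescence (18H8 primary 1:400, FITC secondary 1:300) was read after 6 h compound exposure of HCT116 cells at 37 °C. Inhibition rate and IC50 derive from signal relative to DMSO-treated wells.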

| SMILES | IC50 [nM] |
| --- | --- |
| Cc1sc(C(=O)c2cncnc2N[C@H]2C[C@H](O)[C@@H](COS(N)(=O)=O)[C@@H]2F)cc1[C@H]1OCCc2ccc(Cl)cc21 [Compound 989] | > 200 |
| COc1sc(C(=O)c2cncnc2N[C@H]2C[C@H](O)[C@@H](COS(N)(=O)=O)[C@@H]2F)cc1C1NCCc2ccc(Cl)cc21 (stereo partly drawn) [Compound 262] | 50 to 200 |
| CC(C)N1Cc2sc(C(=O)c3cncnc3N[C@H]3C[C@H](O)[C@@H](COS(N)(=O)=O)[C@@H]3F)cc2[C@@]2(C1)OCCc1ccc(F)cc12 [Compound 733] | > 200 |
| NS(=O)(=O)OC[C@H]1[C@H](F)[C@@H](Nc2ncncc2C(=O)c2cc3c(s2)CCC[C@@]32NCCc3ncc(Cl)cc32)C[C@@H]1O [Compound 604] | > 200 |
| NS(=O)(=O)OC[C@H]1[C@H](F)[C@@H](Nc2ncncc2C(=O)c2cc3c(s2)CC[C@]32NCC3(CC3)c3ccc(Cl)cc32)C[C@@H]1O [Compound 704] | 50 to 200 |
| NS(=O)(=O)OC[C@H]1[C@H](F)[C@@H](Nc2ncncc2C(=O)c2cc3c(s2)COC[C@@]32NCCc3ccc(F)cc32)C[C@@H]1O [Compound 101] | > 200 |
| NS(=O)(=O)OC[C@H]1[C@H](F)[C@@H](Nc2ncncc2C(=O)c2cc3c(s2)CCCC32OCCc3ccc(F)cc32)C[C@@H]1O (stereo partly drawn) [Compound 711] | 50 to 200 |
| NS(=O)(=O)OC[C@H]1[C@H](F)[C@@H](Nc2ncncc2C(=O)c2cc3c(s2)C=C[C@]32OCCc3ccc(Cl)cc32)C[C@@H]1O [Compound 761] | ≤ 50 |
| NS(=O)(=O)OC[C@H]1[C@H](F)[C@@H](Nc2ncncc2C(=O)c2cc3c(s2)C=C[C@]32OCCc3ccc(F)cc32)C[C@@H]1O [Compound 758] | ≤ 50 |
| NS(=O)(=O)OC[C@H]1[C@H](F)[C@@H](Nc2ncncc2C(=O)c2cc3c(s2)C=C[C@@]32NCCc3ccc(F)cc32)C[C@@H]1O [Compound 345] | > 200 |
| NS(=O)(=O)OC[C@H]1[C@H](F)[C@@H](Nc2ncncc2C(=O)c2cc3c(s2)C(F)=CC32NCCc3ccc(Cl)cc32)C[C@@H]1O (stereo partly drawn) [Compound 321] | ≤ 50 |
| CN1Cc2sc(C(=O)c3cncnc3N[C@H]3C[C@H](O)[C@@H](COS(N)(=O)=O)[C@@H]3F)cc2[C@@]2(C1)OCCc1ccc(F)cc12 [Compound 721] | > 200 |
| NS(=O)(=O)OC[C@H]1[C@H](F)[C@@H](Nc2ncncc2C(=O)c2cc3c(s2)CN(C2CC2)C[C@@]32OCCc3ccc(Cl)cc32)C[C@@H]1O [Compound 742] | > 200 |
| NS(=O)(=O)OC[C@H]1[C@H](F)[C@@H](Nc2ncncc2C(=O)c2cc3c(s2)C(F)=C[C@@]32NCCc3ccc(Cl)cc32)C[C@@H]1O [Compound 322] | > 200 |
| Cc1sc(C(=O)c2cncnc2N[C@H]2C[C@H](O)[C@@H](COS(N)(=O)=O)[C@@H]2F)cc1C1NCCc2ccncc21 (stereo partly drawn) [Compound 253] | 50 to 200 |
| NS(=O)(=O)OC[C@H]1[C@H](F)[C@@H](Nc2ncncc2C(=O)c2cc3c(s2)OCC[C@]32NCCc3ccc(Cl)cc32)C[C@@H]1O [Compound 682] | 50 to 200 |
| CN1Cc2sc(C(=O)c3cncnc3N[C@H]3C[C@H](O)[C@@H](COS(N)(=O)=O)[C@@H]3F)cc2[C@@]2(C1)OCCc1ccccc12 [Compound 718] | > 200 |
| NS(=O)(=O)OC[C@H]1[C@H](F)[C@@H](Nc2ncncc2C(=O)c2cc3c(s2)COC[C@]32NCCc3cc(Cl)c(Cl)cc32)C[C@@H]1O [Compound 563] | 50 to 200 |
| Cc1sc(C(=O)c2cncnc2N[C@H]2C[C@H](O)[C@@H](COS(N)(=O)=O)[C@@H]2F)cc1C1NCCc2ccccc21 (stereo partly drawn) [Compound 229] | > 200 |
| NS(=O)(=O)OC[C@H]1[C@H](F)[C@@H](Nc2ncncc2C(=O)c2nc3c(s2)COCC32NCCc3ccc(Cl)cc32)C[C@@H]1O (stereo partly drawn) [Compound 588] | > 200 |

| SMILES | IC50 [nM] |
| --- | --- |
| Cc1ccc2c(c1)[C@@]1(CCc3sc(C(=O)c4cncnc4N[C@H]4C[C@H](O)[C@@H](COS(N)(=O)=O)[C@@H]4F)cc31)NCC2 [Compound 687] | 50 to 200 |
| NS(=O)(=O)OC[C@H]1[C@H](F)[C@@H](Nc2ncncc2C(=O)c2cc3c(s2)CCC[C@]32NCCc3ncc(Cl)cc32)C[C@@H]1O [Compound 605] | ≤ 50 |
| NS(=O)(=O)OC[C@H]1[C@H](F)[C@@H](Nc2ncncc2C(=O)c2cc3c(s2)C=CC32OCCc3ccc(Cl)cc32)C[C@@H]1O (stereo partly drawn) [Compound 759] | ≤ 50 |
| NS(=O)(=O)OC[C@H]1[C@H](F)[C@@H](Nc2ncncc2C(=O)c2cc3c(s2)CCC32NCCc3cc(Cl)c(F)cc32)C[C@@H]1O (stereo partly drawn) [Compound 159] | 50 to 200 |
| NS(=O)(=O)OC[C@H]1[C@H](F)[C@@H](Nc2ncncc2C(=O)c2cc3c(s2)CCC[C@@]32NCCc3cnc(Cl)cc32)C[C@@H]1O [Compound 598] | > 200 |
| NS(=O)(=O)OC[C@H]1[C@H](F)[C@@H](Nc2ncncc2C(=O)c2cc([C@H]3NCCc4ccc(Cl)cc43)c(C3CC3)s2)C[C@@H]1O [Compound 986] | > 200 |
| CN1Cc2sc(C(=O)c3cncnc3N[C@H]3C[C@H](O)[C@@H](COS(N)(=O)=O)[C@@H]3F)cc2[C@]2(C1)OCCc1ccc(F)cc12 [Compound 722] | ≤ 50 |
| N#Cc1ccc2c(c1)[C@]1(C=Cc3sc(C(=O)c4cncnc4N[C@H]4C[C@H](O)[C@@H](COS(N)(=O)=O)[C@@H]4F)cc31)OCC2 [Compound 763] | > 200 |
| [2H]C1([2H])CNC2(CCCc3sc(C(=O)c4cncnc4N[C@H]4C[C@H](O)[C@@H](COS(N)(=O)=O)[C@@H]4F)cc32)c2cc(Cl)ccc21 (stereo partly drawn) [Compound 663] | ≤ 50 |
| NS(=O)(=O)OC[C@H]1[C@H](F)[C@@H](Nc2ncncc2C(=O)c2cc3c(s2)CSC[C@]32NCCc3ccccc32)C[C@@H]1O [Compound 296] | 50 to 200 |
| NS(=O)(=O)OC[C@H]1[C@H](F)[C@@H](Nc2ncncc2C(=O)c2cc3c(s2)CSC[C@@]32NCCc3cnc(Cl)cc32)C[C@@H]1O [Compound 607] | > 200 |
| NS(=O)(=O)OC[C@H]1[C@H](F)[C@@H](Nc2ncncc2C(=O)c2cc3c(s2)CCC32NCCc3ccc(F)cc32)C[C@@H]1O (stereo partly drawn) [Compound 133] | 50 to 200 |
| NS(=O)(=O)OC[C@H]1[C@H](F)[C@@H](Nc2ncncc2C(=O)c2cc3c(s2)CCC32NCCc3ccc(Cl)cc32)C[C@@H]1O (stereo partly drawn) [Compound 130] | 50 to 200 |
| NS(=O)(=O)OC[C@H]1[C@H](F)[C@@H](Nc2ncncc2C(=O)c2cc3c(s2)CCCC32NCCc3cc(F)c(F)cc32)C[C@@H]1O (stereo partly drawn) [Compound 110] | 50 to 200 |
| NS(=O)(=O)OC[C@H]1[C@H](F)[C@@H](Nc2ncncc2C(=O)c2cc3c(s2)CNCC32NCCc3ccc(Cl)cc32)C[C@@H]1O (stereo partly drawn) [Compound 582] | 50 to 200 |
| NS(=O)(=O)OC[C@H]1[C@H](F)[C@@H](Nc2ncncc2C(=O)c2cc3c(s2)CC2(CC2)CC32NCCc3ccc(Cl)cc32)C[C@@H]1O (stereo partly drawn) [Compound 615] | ≤ 50 |
| NS(=O)(=O)OC[C@H]1[C@H](F)[C@@H](Nc2ncncc2C(=O)c2cc3c(s2)CCCC32NCCc3ccc(Cl)cc32)C[C@@H]1O (stereo partly drawn) [Compound 88] | ≤ 50 |
| NS(=O)(=O)OC[C@H]1[C@H](F)[C@@H](Nc2ncncc2C(=O)c2cc3c(s2)OCC32NCCc3ccc(Cl)cc32)C[C@@H]1O (stereo partly drawn) [Compound 145] | 50 to 200 |
| NS(=O)(=O)OC[C@H]1[C@H](F)[C@@H](Nc2ncncc2C(=O)c2cc3c(s2)COC[C@@]32NCCc3c(F)cc(Cl)cc32)C[C@@H]1O [Compound 574] | > 200 |
| [2H]C1([2H])Cc2ccc(Cl)cc2[C@@]2(C=Cc3sc(C(=O)c4cncnc4N[C@H]4C[C@H](O)[C@@H](COS(N)(=O)=O)[C@@H]4F)cc32)N1 [Compound 701] | ≤ 50 |

Same assay, conditions: numeric values, 6 h at 37° C.

| SMILES | IC50 [nM] |
| --- | --- |
| NS(=O)(=O)OC[C@H]1[C@H](F)[C@@H](Nc2ncncc2C(=O)c2cc3c(s2)COC[C@]32NCCc3ccc(Cl)cc32)C[C@@H]1O [Compound 105] | 79.3 |
| NS(=O)(=O)OC[C@H]1[C@H](F)[C@@H](Nc2ncncc2C(=O)c2cc3c(s2)CCC[C@@]32NCCc3ccc(Cl)cc32)C[C@@H]1O [Compound 89] | > 1000 |
| CCN1Cc2sc(C(=O)c3cncnc3N[C@H]3C[C@H](O)[C@@H](COS(N)(=O)=O)[C@@H]3F)cc2[C@@]2(C1)NCCc1ccc(Cl)cc12 [Compound 646] | > 1000 |
| C#CCN1Cc2sc(C(=O)c3cncnc3N[C@H]3C[C@H](O)[C@@H](COS(N)(=O)=O)[C@@H]3F)cc2[C@@]2(C1)NCCc1ccc(Cl)cc12 [Compound 658] | > 1000 |
| NS(=O)(=O)OC[C@H]1[C@H](F)[C@@H](Nc2ncncc2C(=O)c2cc3c(s2)CC[C@@]32NCCc3ccc(F)cc32)C[C@@H]1O [Compound 134] | > 1000 |

From patent US20260297109A1, “COMPOUNDS AS SUMO ACTIVATING ENZYME INHIBITORS” (WIGEN BIOMEDICINE TECHNOLOGY (SHANGHAI) CO., LTD., priority 2022, published 2026)
